Results: patent publication EP0637237B1, “CALCIUM RECEPTOR-ACTIVE MOLECULES” (BRIGHAM AND WOMEN'S HOSPITAL, INC., priority 1993, dated 1994)
Read-outs that look alike come from different tables or passages of the source.

Tests used:
[1] = biological target: T1, parathyroid cell Ca^2+ receptor (Bos taurus, UniProt P35384); format: cell-based, bovine
T1 sequence (P35384 20-1085): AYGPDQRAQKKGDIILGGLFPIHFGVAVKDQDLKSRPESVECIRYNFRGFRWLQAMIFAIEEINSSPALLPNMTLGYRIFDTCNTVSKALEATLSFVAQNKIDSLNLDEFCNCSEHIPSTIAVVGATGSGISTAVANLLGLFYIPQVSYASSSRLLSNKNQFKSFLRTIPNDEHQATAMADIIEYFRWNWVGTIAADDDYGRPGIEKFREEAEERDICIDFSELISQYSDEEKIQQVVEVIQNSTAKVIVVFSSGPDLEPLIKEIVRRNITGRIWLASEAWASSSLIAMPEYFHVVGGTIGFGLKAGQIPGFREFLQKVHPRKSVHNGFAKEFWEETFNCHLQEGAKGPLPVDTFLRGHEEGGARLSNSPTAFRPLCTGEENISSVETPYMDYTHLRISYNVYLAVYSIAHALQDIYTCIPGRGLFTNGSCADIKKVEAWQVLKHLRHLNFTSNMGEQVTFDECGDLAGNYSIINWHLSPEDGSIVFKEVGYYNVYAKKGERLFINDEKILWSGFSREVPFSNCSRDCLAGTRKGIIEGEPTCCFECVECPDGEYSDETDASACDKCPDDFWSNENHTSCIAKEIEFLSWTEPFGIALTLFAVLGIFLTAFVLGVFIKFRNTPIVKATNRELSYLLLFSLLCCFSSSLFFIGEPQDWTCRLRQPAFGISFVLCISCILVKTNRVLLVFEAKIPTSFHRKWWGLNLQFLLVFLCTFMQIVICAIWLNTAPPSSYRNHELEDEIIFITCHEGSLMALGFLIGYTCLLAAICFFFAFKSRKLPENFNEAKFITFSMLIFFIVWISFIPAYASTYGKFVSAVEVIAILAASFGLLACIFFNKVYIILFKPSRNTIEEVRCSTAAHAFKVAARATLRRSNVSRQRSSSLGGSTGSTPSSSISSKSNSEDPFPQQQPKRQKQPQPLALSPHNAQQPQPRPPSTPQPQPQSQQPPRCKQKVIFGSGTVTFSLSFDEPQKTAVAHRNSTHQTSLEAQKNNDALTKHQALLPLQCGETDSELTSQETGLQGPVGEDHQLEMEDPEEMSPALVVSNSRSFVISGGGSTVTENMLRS

[2] = Serum ionized Ca2+ in parathyroidectomized rats; format: in vivo; conditions: single dose 10 mg/kg i.p., over a period of 6 hours
Text: To determine the primary target tissue upon which NPS 467 acts to cause a hypocalcemic response, the para thyroid glands in rats were surgically removed.

[3] = Serum ionized Ca2+ in the 5/6 nephrectomized rat (secondary hyperparathyroidism model); format: in vivo, Sprague-Dawley rats; conditions: 10 mg/kg i.p.
Text: An accepted and widely used animal model of secondary hyperparathyroidism arising from chronic renal failure is the 5/6 nephrectomized rat. […] Male Sprague-Dawley rats (250 g) received a 5/6 nephrectomy and were allowed to recover for 2 weeks. At this time they were normocalcemic (due to elevated levels of serum PTH).

[4] = Serum or whole blood ionized Ca2+ and PTH in rats in vivo; design: species or system Sprague-Dawley rats
Text: Male Sprague-Dawley rates (200 g) were maintained on a low calcium diet for one week prior to receiving test substance or vehicle as control. Blood was collected from the tail vein three hours after the intra-peritoneal administration of NPS 467. […]

C-cell Ca^2+ receptor = biological target: T2, C-cell Ca^2+ receptor (Rattus norvegicus, UniProt P48442); format: cell-based; conditions: Table 6; rMTC 6-23 cells, fura-2; inactive = no increase in cytosolic Ca2+ at 1-5 mM
T2 sequence (P48442 20-1079): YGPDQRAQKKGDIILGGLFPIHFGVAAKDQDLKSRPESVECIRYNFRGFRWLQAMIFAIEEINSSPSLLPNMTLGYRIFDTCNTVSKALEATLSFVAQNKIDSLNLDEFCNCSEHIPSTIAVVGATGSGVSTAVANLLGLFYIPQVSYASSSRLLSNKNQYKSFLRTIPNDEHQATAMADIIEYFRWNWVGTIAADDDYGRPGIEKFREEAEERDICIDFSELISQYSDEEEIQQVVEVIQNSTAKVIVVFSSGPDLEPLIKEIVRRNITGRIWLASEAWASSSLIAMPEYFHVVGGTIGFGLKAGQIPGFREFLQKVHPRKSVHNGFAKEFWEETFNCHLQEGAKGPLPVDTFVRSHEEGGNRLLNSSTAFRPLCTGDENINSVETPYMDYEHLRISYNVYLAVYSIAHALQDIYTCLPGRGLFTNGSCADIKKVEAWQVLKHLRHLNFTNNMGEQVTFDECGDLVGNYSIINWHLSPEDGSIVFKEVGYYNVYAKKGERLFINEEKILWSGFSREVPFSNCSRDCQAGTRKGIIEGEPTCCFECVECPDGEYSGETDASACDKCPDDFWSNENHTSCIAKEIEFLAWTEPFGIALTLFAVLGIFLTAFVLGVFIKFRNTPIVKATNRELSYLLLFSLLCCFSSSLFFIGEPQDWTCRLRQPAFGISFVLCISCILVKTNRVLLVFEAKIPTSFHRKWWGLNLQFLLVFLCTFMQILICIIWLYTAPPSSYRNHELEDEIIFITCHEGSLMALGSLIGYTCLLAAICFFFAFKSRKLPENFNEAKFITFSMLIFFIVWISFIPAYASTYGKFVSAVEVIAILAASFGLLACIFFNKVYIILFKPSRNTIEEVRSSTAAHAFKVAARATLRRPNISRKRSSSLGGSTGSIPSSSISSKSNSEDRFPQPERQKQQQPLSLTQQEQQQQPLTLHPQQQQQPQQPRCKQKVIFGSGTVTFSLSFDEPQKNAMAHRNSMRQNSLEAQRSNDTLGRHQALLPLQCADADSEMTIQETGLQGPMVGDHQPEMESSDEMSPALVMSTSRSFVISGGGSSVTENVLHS

[5] = normal calcium-replete diet, 10 mg/kg i.p.

[Ca2+]i response in Ca2+-free buffer ([1]; 30 àM NPS R-467 alone, Ca2+-free buffer)	[Ca2+]i response in Ca2+-free buffer after neomycin ([1]; NPS R-467 30 µM added after 100 µM neomycin)	SMILES	[Ca2+]i response in Ca2+-free buffer after neomycin ([1]; NPS R-467 30 µM added after 10 µM neomycin)	change in serum ionized Ca2+ levels [2]	time of the fall in serum ionized Ca2+ [3] [h]	serum ionized Ca2+ levels ([3]; 5/6 nephrectomy, 2 weeks recovery)	potency in lowering serum Ca2+ in vivo, enantiomers compared ([4]; each compound at 5 mg/kg body weight, Fig. 42)	time serum ionized Ca2+ remained depressed [4, 5]	time to maximal fall in serum ionized Ca2+ [4, 5] [h]	decrease in serum ionized Ca2+ from the control level ([4]; normal calcium-replete diet, single dose 10 mg/kg i.p., at 1 hr) [%]	EC50(µM) C-CELL (C-cell Ca^2+ receptor)
no increase in [Ca^2+]i	did not cause an increase in [Ca^2+]i	COc1cccc([C@@H](C)NCCCc2ccccc2)c1 [NPS R-467]	elicited a transient increase in [Ca^2+]i	did not cause any change in serum ionized Ca^2+ levels	≤ 2	83 % of controls	more potent than the S-isomer in lowering serum Ca^2+ in vivo	up to 6 hours	≤ 1	22	–
–	–	NCCCNCCCCNCCCNCCCN(O)CCCNC(=O)Cc1c[nH]c2cccc(O)c12 [NPS 015]	–	–	–	–	–	–	–	–	inactive
